The values below come from patent publication US20170304400A1, “METHODS FOR PREVENTING FIBROSIS USING CXCR4 AND/OR CXCR7 BINDING AGENTS” (ViCapsys.Inc, priority 2016, published 2017).

This assay deals with non-human primate (NHP). Kind of assay: Intraperitoneal implant of alginate microbeads in non-human primates: surgical inspection, lavage recovery and biopsy histopathology. The format is in vivo. The procedure: In the first non-human primate (NHP) study with alginate microbeads, two animals received intraperitoneal implants of ˜400,000 microbeads each of (1.6% calcium LVM) alginate containing either 1 μg/ml of recombinant human CXCL12 (“CXCL12^+”) or not (“CXCL12”). Microbeads were prepared using a vibrational encapsulation method using a 200 μm nozzle. Microbeads were on average 426-427 μm in diameter with an error of the mean of approximately 10-15%. The diameter was measured after 2 hours in culture media. Microbeads swell 30-40% after transfer into some media or after implantation. Median roundness was less than the desirable 0.90, ranging from 0.78 in the CXCL12^− microbeads (FIG. 1) to 0.80 in the CXCL12^+ (FIG. 2), but with a skew in roundness reflecting a small but significant number of non-round beads. Microbeads were delivered in a blinded manner to operators. During the implant, primate 0715 received the CXCL12^− implant; primate 1715 received the CXCL12^+ implant. Both animals were implanted using a minimally invasive technique featuring placement of beads in 30 cc of 300 mOsmolar calcium chloride solution in the intraperitoneal space and explanted surgically. Neither of the procedures was eventful. Both animals appeared healthy during the entire period of four weeks following the implantation procedure. The explant procedure for each animal involved surgical opening of the peritoneal cavity, visual inspection of all regions of the mesentery and abdomen/pelvis for bead position, lavage with 100 cc of N-saline to recover free microbeads and peritoneal fluid, and biopsy of tissues where microbeads appeared to be embedded in the tissue. Evaluation was done at 30, 90, and 180 days. Arrows point to adhesions.

For the substance “CXCL12: chemokine CXCL12 (also called SDF-1); recombinant human CXCL12 used in the microbeads”, the “adhesions following surgery or explantation of the capsules” value (CXCL12 applied into the intraperitoneal cavity in alginate capsules) is on record as “no adhesions”. Further, the “long-term appearance of the peritoneum / surgical adhesions” value (later timepoints (day 90 and day 180), compared to CXCL12^- NHP) was “more normal and without surgical adhesions”. Also, the “foreign body responses to embedded microbeads” value (through 90 days) is listed as “spare embedded microbeads from foreign body responses”.
